Legend:
[1] = tested on: MCF7 (human breast adenocarcinoma) cells; experiment: MTT cytotoxicity assay, MCF7; type: cell-based; settings: Homo sapiens, MCF7, mean ± SD of triplicate
Procedure: (§1) The cytotoxicity of the synthesised quinazolin-4(3H)-ones was evaluated by MTT assay, as previously described. Two cancer cell lines, MCF7 (human breast adenocarcinoma) and A2780 (human ovary adenocarcinoma), were used in this study, which were obtained from the ATCC (Rockville, MD, USA). […] Additionally, compounds were prepared at the same medium to obtain serial dilutions (50, 25, […] and 0.1 µM). […] The media were aspirated, and the formazan crystals were solubilised by adding 150 µL DMSO. Absorbance was read on a multi-plate reader (BioRad) at […]. […] The data were obtained from triplicates and analysed using statistical software.

[2] = tested on: A2780 (human ovary adenocarcinoma) cells; experiment: MTT cytotoxicity assay, A2780; type: cell-based; settings: Homo sapiens, A2780, mean ± SD of triplicate
Procedure: as §1

[3] = target: T1, CDK2/CyclinA2 (Homo sapiens, UniProt P24941); experiment: CDK2 Assay Kit, Kinase-Glo MAX luminescence; type: biochemical; settings: one experimental data
T1 construct: purchased #79599
Procedure: The CDK2 Assay Kit is designed to measure CDK2/CyclinA2 activity for screening and profiling applications, using Kinase-Glo® MAX as a detection reagent. The CDK2 Assay Kit comes in a convenient 96-well format, with enough purified recombinant CDK2/CyclinA2 enzyme, CDK substrate peptide, ATP and kinase assay buffer for 100 enzyme reactions. […] […] The compounds were diluted in 10% DMSO and 5 μl of the dilution was added to a 50 μl reaction so that the final concentration of DMSO was 1% in all of the reactions. All of the enzymatic reactions were conducted at 30 °C for 40 min. The 50 μl reaction mixture contained 40 mM Tris, pH 7.4, 10 mM MgCl2, 0.1 mg/mL BSA, 1 mM DTT, 10 mM ATP, Kinase substrate and the enzyme (CDK2/CyclinA2). After the enzymatic reaction, 50 μl of Kinase-Glo® MAX Luminescence kinase assay solution was added to each reaction and the plates were incubated for 5 min at room temperature. Luminescence signal was measured using a Bio Tek Synergy 2 microplate reader.
Figure S1. Calculation of the IC20 Values of Protein Kinase Enzyme CDK2 for 2f
* All the kinase IC20 (µM) were calculated according to the above equations.
(1 picture or pasted object on this page, not shown here)

[4] = target: T2, HER2 (Homo sapiens, UniProt P04626); experiment: HER2 kinase assay kit, Kinase-Glo MAX luminescence; type: biochemical; settings: for inhibition at 0.01 µM / inhibition at 0.1 µM / inhibition at 1 µM / inhibition at 10 µM: one experimental data; for IC50: mean ± SD of triplicate
T2 construct: purchased #40721
T2 sequence (P04626 23-1255): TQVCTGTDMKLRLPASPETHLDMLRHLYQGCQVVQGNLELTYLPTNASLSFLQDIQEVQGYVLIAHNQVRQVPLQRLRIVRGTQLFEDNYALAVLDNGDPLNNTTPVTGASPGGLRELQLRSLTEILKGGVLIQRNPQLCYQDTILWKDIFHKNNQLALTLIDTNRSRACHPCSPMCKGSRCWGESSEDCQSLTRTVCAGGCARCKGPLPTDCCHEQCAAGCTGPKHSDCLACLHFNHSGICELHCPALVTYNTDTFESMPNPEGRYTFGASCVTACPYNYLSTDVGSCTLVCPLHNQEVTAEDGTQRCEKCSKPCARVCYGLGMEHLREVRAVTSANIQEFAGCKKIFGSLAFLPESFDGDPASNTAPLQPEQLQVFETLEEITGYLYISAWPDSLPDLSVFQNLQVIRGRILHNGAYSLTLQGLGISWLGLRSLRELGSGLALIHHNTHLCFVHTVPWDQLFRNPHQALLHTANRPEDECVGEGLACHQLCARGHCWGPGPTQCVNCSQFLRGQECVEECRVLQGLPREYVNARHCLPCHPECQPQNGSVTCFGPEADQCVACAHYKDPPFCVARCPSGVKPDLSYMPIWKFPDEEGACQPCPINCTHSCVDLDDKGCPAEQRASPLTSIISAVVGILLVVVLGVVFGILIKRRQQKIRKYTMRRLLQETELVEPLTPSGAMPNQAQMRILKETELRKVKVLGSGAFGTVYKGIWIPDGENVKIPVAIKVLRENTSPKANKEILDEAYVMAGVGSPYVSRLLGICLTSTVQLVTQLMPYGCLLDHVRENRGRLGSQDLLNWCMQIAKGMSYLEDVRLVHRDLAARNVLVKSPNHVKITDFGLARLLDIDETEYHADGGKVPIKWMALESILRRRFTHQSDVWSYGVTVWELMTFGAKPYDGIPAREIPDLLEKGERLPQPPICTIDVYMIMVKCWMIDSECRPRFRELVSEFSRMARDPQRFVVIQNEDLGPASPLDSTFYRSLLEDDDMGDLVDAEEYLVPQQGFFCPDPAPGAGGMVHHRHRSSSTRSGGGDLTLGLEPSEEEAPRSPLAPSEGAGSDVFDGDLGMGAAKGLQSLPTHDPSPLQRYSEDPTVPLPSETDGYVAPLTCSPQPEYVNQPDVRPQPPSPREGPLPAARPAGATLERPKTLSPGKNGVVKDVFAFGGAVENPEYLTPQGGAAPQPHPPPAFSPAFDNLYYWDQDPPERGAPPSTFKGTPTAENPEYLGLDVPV
Procedure: (§2) The HER2/EGFR/VEGFR2 assay kit is designed to measure HER2/EGFR/VEGFR-2 inhibitory activity for screening and profiling applications, using Kinase-Glo® MAX as a detection reagent. The HER2/EGFR/VEGFR2 assay kit comes in a convenient 96-well format, with enough purified recombinant HER2/EGFR/VEGFR2 enzyme, HER2/EGFR/VEGFR2 substrate, ATP and kinase buffer 1 for 100 enzyme reactions. […] […] The quinazolin-4(3H)-ones were diluted in 10% DMSO and 5 μl of the dilution was added to a 50 μl reaction so that the final concentration of DMSO was 1% in all of the reactions. All of the enzymatic reactions were conducted at 30 °C for 40 min. The 50 μl reaction mixture contained 40 mM Tris, pH 7.4, 10 mM MgCl2, 0.1 mg/mL BSA, 1 mM DTT, 10 mM ATP, kinase substrate and the enzyme HER2 / EGFR / VEGFR2. After the enzymatic reaction, 50 μl of Kinase-Glo® MAX luminescence kinase assay solution was added to each reaction and the plates were incubated for 5 min at room temperature. Luminescence signal was measured using a Bio Tek Synergy 2 microplate reader (For detail enzyme assay protocol and the results, please see supplementary data).

[5] = target: T3, EGFR (Homo sapiens, UniProt P00533); experiment: EGFR kinase assay kit, Kinase-Glo MAX luminescence; type: biochemical; settings: for inhibition at 0.01 µM / inhibition at 0.1 µM / inhibition at 1 µM / inhibition at 10 µM: one experimental data; for IC50: mean ± SD of triplicate
T3 construct: purchased #40321
T3 sequence (P00533 25-1210): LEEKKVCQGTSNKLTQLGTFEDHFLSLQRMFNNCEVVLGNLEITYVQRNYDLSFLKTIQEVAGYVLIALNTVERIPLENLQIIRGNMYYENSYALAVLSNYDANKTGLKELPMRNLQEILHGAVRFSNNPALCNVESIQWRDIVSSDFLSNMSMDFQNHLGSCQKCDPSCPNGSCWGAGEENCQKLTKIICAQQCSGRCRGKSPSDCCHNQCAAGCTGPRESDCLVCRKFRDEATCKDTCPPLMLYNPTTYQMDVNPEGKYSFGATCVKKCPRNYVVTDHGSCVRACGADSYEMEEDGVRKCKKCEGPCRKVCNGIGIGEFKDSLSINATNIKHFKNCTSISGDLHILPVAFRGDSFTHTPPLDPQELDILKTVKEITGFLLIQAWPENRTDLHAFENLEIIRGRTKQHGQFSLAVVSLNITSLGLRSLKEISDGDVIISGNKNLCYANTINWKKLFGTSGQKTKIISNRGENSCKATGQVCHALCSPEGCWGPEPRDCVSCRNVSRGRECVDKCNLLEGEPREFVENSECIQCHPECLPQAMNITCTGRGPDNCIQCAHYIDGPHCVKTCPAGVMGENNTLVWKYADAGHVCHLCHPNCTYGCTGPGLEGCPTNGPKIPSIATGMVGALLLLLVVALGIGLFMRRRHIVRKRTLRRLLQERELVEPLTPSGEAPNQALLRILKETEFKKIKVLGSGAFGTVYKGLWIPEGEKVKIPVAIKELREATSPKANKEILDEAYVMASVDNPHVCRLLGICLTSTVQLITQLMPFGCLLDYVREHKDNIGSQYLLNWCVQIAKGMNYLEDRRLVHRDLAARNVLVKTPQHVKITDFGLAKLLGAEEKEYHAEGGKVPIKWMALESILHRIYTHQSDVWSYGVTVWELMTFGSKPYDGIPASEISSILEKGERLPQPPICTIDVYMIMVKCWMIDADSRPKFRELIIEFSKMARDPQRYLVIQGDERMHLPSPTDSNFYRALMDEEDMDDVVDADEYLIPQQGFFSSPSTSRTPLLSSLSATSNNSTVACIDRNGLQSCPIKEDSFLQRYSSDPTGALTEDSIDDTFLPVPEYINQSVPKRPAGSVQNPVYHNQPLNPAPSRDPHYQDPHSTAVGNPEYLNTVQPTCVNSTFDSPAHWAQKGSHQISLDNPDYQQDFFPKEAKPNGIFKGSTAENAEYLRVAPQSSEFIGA
Procedure: as §2

[6] = target: T4, VEGFR2 (Homo sapiens, UniProt P35968); experiment: VEGFR2 kinase assay kit, Kinase-Glo MAX luminescence; type: biochemical; settings: for inhibition at 0.01 µM / inhibition at 0.1 µM / inhibition at 1 µM / inhibition at 10 µM: one experimental data, read-out: % Inhibition VEGFR-2; for IC50: mean ± SD of triplicate
T4 construct: purchased #40325
T4 sequence (P35968 20-1356): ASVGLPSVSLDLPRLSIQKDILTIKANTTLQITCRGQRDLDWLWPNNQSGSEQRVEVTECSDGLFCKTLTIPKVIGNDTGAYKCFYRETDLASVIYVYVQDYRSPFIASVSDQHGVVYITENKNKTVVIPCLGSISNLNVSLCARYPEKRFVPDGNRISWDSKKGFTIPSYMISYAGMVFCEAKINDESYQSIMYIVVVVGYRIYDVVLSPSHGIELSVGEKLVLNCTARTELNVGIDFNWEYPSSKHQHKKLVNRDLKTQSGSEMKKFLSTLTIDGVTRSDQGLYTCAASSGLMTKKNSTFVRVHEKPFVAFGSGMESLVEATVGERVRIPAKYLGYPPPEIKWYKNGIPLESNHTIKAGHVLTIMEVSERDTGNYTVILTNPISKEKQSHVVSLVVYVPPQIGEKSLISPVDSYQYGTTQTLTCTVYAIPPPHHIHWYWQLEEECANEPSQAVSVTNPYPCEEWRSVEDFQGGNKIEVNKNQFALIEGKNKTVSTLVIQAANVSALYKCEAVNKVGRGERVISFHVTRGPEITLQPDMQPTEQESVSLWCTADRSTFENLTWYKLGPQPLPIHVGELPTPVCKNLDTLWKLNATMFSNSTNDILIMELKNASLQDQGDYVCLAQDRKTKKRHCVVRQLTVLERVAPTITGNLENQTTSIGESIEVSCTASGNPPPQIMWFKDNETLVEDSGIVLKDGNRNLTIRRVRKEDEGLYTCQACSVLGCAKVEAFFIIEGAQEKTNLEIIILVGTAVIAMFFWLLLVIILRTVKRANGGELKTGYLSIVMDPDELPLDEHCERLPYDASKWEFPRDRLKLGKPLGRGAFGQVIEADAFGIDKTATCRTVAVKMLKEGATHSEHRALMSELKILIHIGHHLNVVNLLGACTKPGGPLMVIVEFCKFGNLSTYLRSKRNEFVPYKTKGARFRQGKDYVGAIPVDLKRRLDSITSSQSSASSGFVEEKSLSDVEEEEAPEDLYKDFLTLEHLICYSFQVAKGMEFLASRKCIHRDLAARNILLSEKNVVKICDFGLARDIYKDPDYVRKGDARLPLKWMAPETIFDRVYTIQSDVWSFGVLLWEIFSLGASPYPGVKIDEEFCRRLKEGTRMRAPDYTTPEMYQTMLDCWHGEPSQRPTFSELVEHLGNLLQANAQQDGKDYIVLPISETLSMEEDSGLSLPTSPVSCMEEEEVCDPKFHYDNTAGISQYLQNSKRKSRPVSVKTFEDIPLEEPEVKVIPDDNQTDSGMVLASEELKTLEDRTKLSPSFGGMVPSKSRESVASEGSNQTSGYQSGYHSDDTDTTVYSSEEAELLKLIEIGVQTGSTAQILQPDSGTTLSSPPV
Procedure: as §2

[7] = target: T1, CDK2/CyclinA2; experiment: CDK2 Assay Kit, Kinase-Glo MAX luminescence; type: biochemical; settings: mean ± SD of triplicate

Row | Structure (SMILES) | inhibition at 0.01 µM [3] [%] | inhibition at 0.1 µM [3] [%] | inhibition at 1 µM [3] [%] | inhibition at 10 µM [3] [%] | inhibition at 0.01 µM [4] [%] | inhibition at 0.1 µM [4] [%] | inhibition at 1 µM [4] [%] | inhibition at 10 µM [4] [%] | IC50 [4] [nM] | inhibition at 0.01 µM [5] [%] | inhibition at 0.1 µM [5] [%] | inhibition at 1 µM [5] [%] | inhibition at 10 µM [5] [%] | IC50 [5] [nM] | inhibition at 0.01 µM [6] [%] | inhibition at 0.1 µM [6] [%] | inhibition at 1 µM [6] [%] | inhibition at 10 µM [6] [%] | IC50 [6] [nM] | IC50 [7] [nM] | other results
1 | CCOC(=O)CSc1nc2ccc(Cl)cc2c(=O)n1Cc1ccccc1 [2f, Ethyl 2-((3-benzyl-6-chloro-4-oxo-3,4-dihydroquinazolin-2-yl)thio)acetate] | 4.32 | 31.2 | 32.9 | 84 | 2.33 | 38.9 | 74.8 | 89.8 | 264 ± 13 | 2.18 | 19.1 | 29.2 | 83.2 | 584 ± 11 | 3.49 | 20.2 | 40.1 | 38.3 | 1920 ± 21 | 424 ± 12 | IC50 [1]: 1560 ± 240 nM; IC50 [2]: 1320 ± 430 nM; melting point: 73 to 75 °C
2 | CCOC(=O)CSc1nc2ccc(F)cc2c(=O)n1Cc1ccccc1 [2g, Ethyl 2-((3-benzyl-6-fluoro-4-oxo-3,4-dihydroquinazolin-2-yl)thio)acetate] | 8.38 | 20.7 | 78.2 | 91.4 | 17.3 | 44.2 | 83.5 | 94.4 | 884 ± 16 | 22.9 | 48.9 | 80.1 | 91.2 | 232 ± 30 | 2.43 | 18.8 | 44.1 | 29.2 | 702 ± 13 | 444 ± 11 | IC50 [1]: 1220 ± 170 nM; IC50 [2]: 2400 ± 200 nM; melting point: 110 to 111 °C
3 | CCOC(=O)CSc1nc2c(F)cc(F)cc2c(=O)n1Cc1ccccc1 [2h, Ethyl 2-((3-benzyl-6,8-difluoro-4-oxo-3,4-dihydroquinazolin-2-yl)thio)acetate] | 2.43 | 12.5 | 24.4 | 80.2 | 9.07 | 38.9 | 32.3 | 82.3 | 138 ± 12 | 3.71 | 27.5 | 21 | 77.3 | 102 ± 14 | 13.3 | 38.9 | 70.8 | 88 | 2190 ± 24 | 318 ± 23 | IC50 [1]: 840 ± 160 nM; IC50 [2]: 1400 ± 340 nM; melting point: 120 to 123 °C
4 | CCOC(=O)CSc1nc2cc(OC)c(OC)cc2c(=O)n1Cc1ccccc1 [2i, Ethyl 2-((3-benzyl-6,7-dimethoxy-4-oxo-3,4-dihydroquinazolin-2-yl)thio)acetate] | 4.28 | 40.5 | 37.8 | 83.7 | 20.4 | 24.4 | 83.7 | 94.8 | 128 ± 24 | 11.8 | 43.7 | 39.1 | 82.3 | 97 ± 19 | 8.13 | 31.8 | 20.3 | 77.8 | 2846 ± 14 | 173 ± 12 | IC50 [1]: 2700 ± 160 nM; IC50 [2]: 1160 ± 100 nM; melting point: 104 to 105 °C
5 | CCOC(=O)CSc1nc2c(C)cc(Cl)cc2c(=O)n1Cc1ccccc1 [2j] | 4.28 | 40.5 | 37.8 | 83.7 | 12.3 | 47 | 82.4 | 93.5 | 343 ± 15 | 22.2 | 49.9 | 84.3 | 90.2 | 813 ± 22 | 0.324 | 20.3 | 38.9 | 33.9 | 247 ± 15 | 862 ± 16 | IC50 [1]: 3790 ± 960 nM; IC50 [2]: 2680 ± 90 nM; melting point: 132 to 134 °C

Further lines, with some results ahead:

Row | inhibition at 0.01 µM [3] [%] | inhibition at 0.1 µM [3] [%] | inhibition at 1 µM [3] [%] | inhibition at 10 µM [3] [%] | inhibition at 0.01 µM [4] [%] | inhibition at 0.1 µM [4] [%] | inhibition at 1 µM [4] [%] | inhibition at 10 µM [4] [%] | IC50 [4] [nM] | inhibition at 0.01 µM [5] [%] | inhibition at 0.1 µM [5] [%] | inhibition at 1 µM [5] [%] | inhibition at 10 µM [5] [%] | IC50 [5] [nM] | inhibition at 0.01 µM [6] [%] | inhibition at 0.1 µM [6] [%] | inhibition at 1 µM [6] [%] | inhibition at 10 µM [6] [%] | IC50 [6] [nM] | IC50 [7] [nM] | Structure (SMILES) | other results
6 | 2.23 | 34.7 | 33.3 | 81 | 17.3 | 47.8 | 82.2 | 90.2 | 132 ± 14 | 3.31 | 31.3 | 31.4 | 84.8 | 440 ± 15 | 3.71 | 29.8 | 23.4 | 79.3 | 651 ± 14 | 420 ± 13 | NNC(=O)CSc1nc2ccc(Cl)cc2c(=O)n1Cc1ccccc1 [3f, 2-((3-Benzyl-6-chloro-4-oxo-3,4-dihydroquinazolin-2-yl)thio)acetohydrazide] | IC50 [1]: 340 ± 110 nM; IC50 [2]: 1540 ± 600 nM; melting point: 151 to 152 °C
7 | 14.9 | 47.1 | 74.1 | 89 | 23.4 | 23.4 | 83.8 | 94.8 | 112 ± 16 | 11.7 | 40.3 | 81.3 | 94 | 221 ± 14 | 3.73 | 40.9 | 71.9 | 90.3 | 294 ± 11 | 207 ± 17 | NNC(=O)CSc1nc2ccc(F)cc2c(=O)n1Cc1ccccc1 [3g, 2-((3-Benzyl-6-fluoro-4-oxo-3,4-dihydroquinazolin-2-yl)thio)acetohydrazide] | –
8 | 10.3 | 44.3 | 72.1 | 90.4 | 17.9 | 20.3 | 84.3 | 94.8 | 79 ± 15 | 3.38 | 41.2 | 77.2 | 92.4 | 181 ± 11 | 10.2 | 33.5 | 37.2 | 89.4 | 257 ± 23 | 177 ± 32 | COc1cc2nc(SCC(=O)NN)n(Cc3ccccc3)c(=O)c2cc1OC [3i, 2-((3-Benzyl-6,7-dimethoxy-4-oxo-3,4-dihydroquinazolin-2-yl)thio)acetohydrazide] | IC50 [1]: 560 ± 310 nM; IC50 [2]: 1360 ± 70 nM

From PMC8462848, “Quinazolin-4(3H)-one based potential multiple tyrosine kinase inhibitors with excellent cytotoxicity” (Journal of Enzyme Inhibition and Medicinal Chemistry, 2021)
